Measured values reported in patent EP4600367A1, “ENZYMATIC CLEAVAGE OF N-ALKYL COMPOUNDS AFTER CHEMOLYSIS OF POLYURETHANES” (Covestro Deutschland AG, priority 2024, dated 2025).

Legend:
MaoN = molecular target: T1, MaoN (Aspergillus niger, UniProt P46882); experiment: Enzymatic N-dealkylation assay MAOs/CAOs, HPLC product release; assay type: biochemical; conditions: 10 mM substrate, phosphate buffer pH 7,5, 37 °C, at least 48 h
T1 construct: His-tag (N); made in house; host or cells: Escherichia coli BL21(DE3) pET21a
Method: (§1) Die Expression der in Tabelle 1 gezeigten MAOs und CAOs erfolgte im Stamm E. coli BL21(DE3). Der Zellaufschluss erfolgte durch Ultraschallbehandlung und die Enzymreinigung über einen N-terminalen His-tag und das IMAC-System (Nickel-NTA) nach Angaben des Herstellers (Fisher Scientific GmbH) mit anschließender Umpufferung in einen Lagerpuffer (25 mM Tris/HCl pH 7.8, 1 mM dithiothreitol (DTT), 1 mM PMSF, 300 mM NaCl) über PD-10-Säulen nach Angaben des Herstellers (cytiva). Die erfolgreiche Expression und Aufreinigung wurde über ein SDS-PAGE kontrolliert. Tabelle 1: Untersuchte Enzyme im Rahmen der enzymatischen N-Dealkylierung.
(§2) Für MAOs/CAOs erfolgte die Reaktion im 200 µL Maßstab bei 37 °C für mindestens 48 h und 200 rpm. Dazu wurden 100 µL der oben beschriebenen Enzympräparate in Phosphatpuffer (bevorzugt zwischen 50 bis 200 mM, pH 7,5) mit 10 mM eines der sechs in Tabelle 2 gelisteten Substrate versetzt. Als Co-Solvenz für das Substrat wurde Dimethylsulfoxid eingesetzt (maximal 5 % (w/w) der finalen Umsetzungsreaktion). Um eine ausreichende Sauerstoffversorgung über den Kopfraum des Reaktionsansatzes zu gewährleisten, wurden Reaktionsgefäße oder Mikrotiterplatten in eckiger Ausführungsform und 10-fachem Gesamtvolumen bevorzugt.
(§3) Als Negativkontrollen wurden für alle Substrate und Bedingungen Assays ohne Enzymlösung durchgeführt. Alle Assays erfolgten mindestens in Triplikaten.
(§4) Zum Abstoppen der enzymatischen Reaktion und Extraktion erfolgte die Verdünnung des Reaktionsansatzes in gleichen Teilen Acetonitril. Die Proben wurden filtriert und die Produktfreisetzung per HPLC analysiert (ZORBAX Eclipse C18 Säule (Partikelgröße von […], 4,6 × 75 mm (Agilent Technologies, Santa Clara, USA), 40 °C, Laufmittel A: Acetonitril mit 5 % Reinstwasser, Laufmittel B: 10 mM Natriumphosphat-Puffer pH 7,0 mit 5 % ACN, Fluss: 1 mL/min). Das Profil der HPLC-Methode ist in Tabelle 3 gezeigt. Tabelle 4 zeigt die Elutionszeiten der Komponenten mit dieser Messmethode. Tabelle 3: Profil der HPLC-Methode.

MaoN5 = molecular target: T2, MaoN5 (Aspergillus niger, UniProt P46882, D385S/I246M/N336S/T384N); experiment: as above; assay type: biochemical; conditions: for enzymatischer Abbau von Modell-N-Alkylverbindungen: MaoN5: 10 mM substrate, phosphate buffer pH 7,5, 37 °C, at least 48 h; for Aktivität / Freisetzung des Zielprodukts: MaoN5
T2 construct: His-tag (N); made in house; host or cells: Escherichia coli BL21(DE3) pET21a
Method: as §1, §2, §3, §4

ChaO YT02 = experiment: as above; assay type: biochemical, Acinetobacter sp. YT-02; conditions: for enzymatischer Abbau von Modell-N-Alkylverbindungen: ChaO YT02: 10 mM substrate, phosphate buffer pH 7,5, 37 °C, at least 48 h
Method: as §1, §2, §3, §4

ChaoA L225A = experiment: as above; assay type: biochemical, Brevibacterium oxydans strain IH-35A; conditions: for enzymatischer Abbau von Modell-N-Alkylverbindungen: ChaoA L225A: 10 mM substrate, phosphate buffer pH 7,5, 37 °C, at least 48 h; for Aktivität / Freisetzung des Zielprodukts: ChaoA L225A
Method: as §1, §2, §3, §4

UPO #13M1 = experiment: Enzymatic N-dealkylation assay UPOs with H2O2, HPLC; assay type: biochemical; conditions: for enzymatischer Abbau von Modell-N-Alkylverbindungen: UPO #13M1: 4 mM substrate, Tricine buffer 100 mM, 30 °C, at least 4 h, H2O2 added every 30 min
Method: (§5) Die vier Enzyme UPO #13, UPO #13M1, UPO #13M3 und UPO #13M5 wurden von Aminoverse B.V. bereitgestellt. Zusätzlich wurde das Wildtyp AaeUPO aus der Basidiomycete Agrocybe aegerita (Ullrich, R., et al. (2004). "Novel haloperoxidase from the agaric basidiomycete Agrocybe aegerita oxidizes aryl alcohols and aldehydes." Appl Environ Microbiol 70(8): 4575-4581) von Aminoverse B.V. erworben.
(§6) Für UPOs erfolgte die Reaktion im 300 µL Maßstab in Tricine Puffer (100 mM) bei 30 °C für mindestens 4 h und 200 rpm. Dazu wurden die von Aminoverse B.V. bereitgestellten Enzympräparate in dH2O gelöst (ca. 0,575 mg/mL) und 30 µL der Enzymlösung in den Assay eingesetzt, welcher mit 4 mM eines der sechs in Tabelle 2 gelisteten Substrate versetzt war. Der Assay wurde mit Zugabe des Co-Substrats H2O2 (1,5 µL einer 200 mM H2O2-Lösung) gestartet, welches alle 30 min wiederholt zugegeben wurde (final 12 µL H2O2).
as §3, §4

UPO #13M3 = experiment: as above; assay type: biochemical; conditions: for enzymatischer Abbau von Modell-N-Alkylverbindungen: UPO #13M3: 4 mM substrate, Tricine buffer 100 mM, 30 °C, at least 4 h, H2O2 added every 30 min
Method: as §5, §6, §3, §4

UPO #13M5 = experiment: as above; assay type: biochemical; conditions: for enzymatischer Abbau von Modell-N-Alkylverbindungen: UPO #13M5: 4 mM substrate, Tricine buffer 100 mM, 30 °C, at least 4 h, H2O2 added every 30 min
Method: as §5, §6, §3, §4

UPO #13 = experiment: as above; assay type: biochemical; conditions: for enzymatischer Abbau von Modell-N-Alkylverbindungen: UPO #13: 4 mM substrate, Tricine buffer 100 mM, 30 °C, at least 4 h, H2O2 added every 30 min
Method: as §5, §6, §3, §4

AaeUPO = molecular target: T3, AaeUPO (Cyclocybe aegerita, UniProt B9W4V6); experiment: as above; assay type: biochemical, Agrocybe aegerita; conditions: for enzymatischer Abbau von Modell-N-Alkylverbindungen: AaeUPO: 4 mM substrate, Tricine buffer 100 mM, 30 °C, at least 4 h, H2O2 added every 30 min
T3 construct: purchased Aminoverse B.V
T3 sequence (B9W4V6 44-371): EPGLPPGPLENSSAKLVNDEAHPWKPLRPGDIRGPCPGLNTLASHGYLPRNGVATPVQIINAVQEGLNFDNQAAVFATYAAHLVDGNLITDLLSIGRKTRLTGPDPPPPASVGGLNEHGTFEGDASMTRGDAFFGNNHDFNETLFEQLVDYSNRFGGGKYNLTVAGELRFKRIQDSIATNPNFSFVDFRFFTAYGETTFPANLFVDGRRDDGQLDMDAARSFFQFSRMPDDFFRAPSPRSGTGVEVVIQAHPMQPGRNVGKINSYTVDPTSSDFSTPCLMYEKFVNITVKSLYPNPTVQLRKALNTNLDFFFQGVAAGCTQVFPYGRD
Method: Die vier Enzyme UPO #13, UPO #13M1, UPO #13M3 und UPO #13M5 wurden von Aminoverse B.V. bereitgestellt.
Für UPOs erfolgte die Reaktion im 300 µL Maßstab in Tricine Puffer (100 mM) bei 30 °C für mindestens 4 h und 200 rpm. […] Der Assay wurde mit Zugabe des Co-Substrats H2O2 (1,5 µL einer 200 mM H2O2-Lösung) gestartet, welches alle 30 min wiederholt zugegeben wurde (final 12 µL H2O2).
as §3, §4

MAOs/CAOs = experiment: Enzymatic N-dealkylation assay, statement for the MAOs/CAOs as a group; assay type: biochemical
Method: as §1, §2, §3, §4

[1] = UPO #13M1, mol% relative to substrate used
[2] = UPO #13M3, mol% relative to substrate used
[3] = UPO #13M5, mol% relative to substrate used
[4] = UPO #13, mol% relative to substrate used
[5] = AaeUPO, mol% relative to substrate used

T1 sequence (P46882 whole entry): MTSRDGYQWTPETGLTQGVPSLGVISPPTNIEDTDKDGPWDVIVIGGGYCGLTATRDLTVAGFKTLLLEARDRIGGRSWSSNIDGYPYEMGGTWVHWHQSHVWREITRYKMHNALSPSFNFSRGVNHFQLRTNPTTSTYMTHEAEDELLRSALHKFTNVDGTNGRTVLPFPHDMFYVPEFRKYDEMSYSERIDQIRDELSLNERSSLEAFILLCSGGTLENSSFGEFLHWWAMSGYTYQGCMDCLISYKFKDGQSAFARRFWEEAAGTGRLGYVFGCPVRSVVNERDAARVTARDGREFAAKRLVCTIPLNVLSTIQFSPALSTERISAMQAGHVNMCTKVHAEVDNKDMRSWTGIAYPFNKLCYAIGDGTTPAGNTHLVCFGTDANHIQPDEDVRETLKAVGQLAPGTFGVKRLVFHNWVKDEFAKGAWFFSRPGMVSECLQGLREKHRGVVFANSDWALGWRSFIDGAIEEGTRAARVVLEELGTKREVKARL
T2 sequence (P46882 whole entry I246M/N336S/T384N/D385S): as the sequence (P46882 whole entry) above, with I246M, N336S, T384N, D385S counted along it

SMILES	enzymatischer Abbau von Modell-N-Alkylverbindungen: MaoN (MaoN)	enzymatischer Abbau von Modell-N-Alkylverbindungen: MaoN5 (MaoN5)	enzymatischer Abbau von Modell-N-Alkylverbindungen: ChaO YT02 (ChaO YT02)	enzymatischer Abbau von Modell-N-Alkylverbindungen: ChaoA L225A (ChaoA L225A)	enzymatischer Abbau von Modell-N-Alkylverbindungen: UPO #13M5 (UPO #13M5)	enzymatischer Abbau von Modell-N-Alkylverbindungen: AaeUPO (AaeUPO)	Aktivität (MAOs/CAOs)	4,4'-MDA-Freisetzung (UPO #13M1; [1])	4,4'-MDA-Freisetzung (UPO #13M3; [2])	4,4'-MDA-Freisetzung (UPO #13M5; [3])	4,4'-MDA-Freisetzung (UPO #13; [4])	4,4'-MDA-Freisetzung (AaeUPO; [5])	Aktivität / Freisetzung des Zielprodukts (ChaoA L225A)	enzymatischer Abbau von Modell-N-Alkylverbindungen: UPO #13M1 (UPO #13M1)	enzymatischer Abbau von Modell-N-Alkylverbindungen: UPO #13M3 (UPO #13M3)	enzymatischer Abbau von Modell-N-Alkylverbindungen: UPO #13 (UPO #13)	Aktivität / Freisetzung des Zielprodukts (MaoN5)	further results
CCN(C)c1ccccc1 [N-Ethyl-N-Methylanilin]	nein	nein	nein	nein	nein	nein	keine Aktivität	–	–	–	–	–	–	–	–	–	–	Anilin als Zielprodukt (UPO #13M1; UPO #13M1): nachgewiesen; Anilin als Zielprodukt (UPO #13M3; UPO #13M3): nachgewiesen; Anilin als Zielprodukt (UPO #13; UPO #13): nachgewiesen
CN(C)c1ccc(Cc2ccc(N(C)C)cc2)cc1 [N,N,N',N'-Tetramethyl-4,4'-MDA, N,N,N',N'-Tetramethyl-4,4'-diaminodiphenylmethan]	nein	nein	nein	nein	–	nein	keine reproduzierbare Aktivität	1,1 mol%	1,4 mol%	1,3 mol%	1,1 mol%	0,1 mol%	–	–	–	–	–	N,N'-Dimethyl-4,4'-MDA - Zwischenprodukt der enzymatischen Reaktion - nachgewiesen (UPO #13M1; [1]): 31,8 mol%; N,N'-Dimethyl-4,4'-MDA - Zwischenprodukt der enzymatischen Reaktion - nachgewiesen (UPO #13M3; [2]): 27,5 mol%; N,N'-Dimethyl-4,4'-MDA - Zwischenprodukt der enzymatischen Reaktion - nachgewiesen (UPO #13M5; [3]): 27,9 mol%; N,N'-Dimethyl-4,4'-MDA - Zwischenprodukt der enzymatischen Reaktion - nachgewiesen (UPO #13; [4]): 25,7 mol%; N,N'-Dimethyl-4,4'-MDA - Zwischenprodukt der enzymatischen Reaktion - nachgewiesen (AaeUPO; [5]): 0 mol%
c1ccc(CNc2ccccc2)cc1 [N-Benzylanilin]	nein	nein	schwach	schwach	deg	deg	–	–	–	–	–	–	spezifische Aktivität	deg	deg	deg	–	Aktivität / Freisetzung des Zielprodukts (ChaO YT02; ChaO YT02): spezifische Aktivität
CCNc1ccccc1 [N-Ethylanilin]	–	schwach	schwach	–	deg	deg	spezifische Aktivität	–	–	–	–	–	–	deg	deg	deg	–	–
CCNc1ccc(Cc2ccc(NCC)cc2)cc1 [N,N'-Diethyl-4,4'-MDA]	nein	schwach	nein	schwach	ja/deg^1	nein	–	2,5 mol%	2,9 mol%	2,8 mol%	2,6 mol%	0 mol%	nur sehr schwache 4,4'-MDA-Freisetzung	ja/deg^1	ja/deg^1	ja/deg^1	nur sehr schwache 4,4'-MDA-Freisetzung	–
CNc1ccc(Cc2ccc(NC)cc2)cc1 [N,N'-Dimethyl-4,4'-MDA]	nein	schwach	nein	schwach	–	–	–	2,5 mol%	2,8 mol%	2,2 mol%	2,1 mol%	0,7 mol%	geringerer Aktivität	–	–	–	geringerer Aktivität	Abbau des eingesetzten Substrates (UPO #13M3; UPO #13M3, substrate no longer detected in HPLC chromatograms): vollständig abgebaut; Abbau des eingesetzten Substrates (UPO #13M5; UPO #13M5, substrate no longer detected in HPLC chromatograms): vollständig abgebaut; Abbau des eingesetzten Substrates (UPO #13; UPO #13, substrate no longer detected in HPLC chromatograms): vollständig abgebaut
